Measurements reported in patent publication US9089543B2, “Anti-inflammatory composition containing macrolactin A and a derivative thereof as active ingredients” (DAEWOO PHARMACEUTICAL IND. CO., LTD., priority 2009, dated 2015).
Entries after “also recorded” stand apart in the source; their conditions may differ.

How the values were obtained:
[1] = test system: iNOS protein; assay: Formation of iNOS protein by western blot in LPS-stimulated RAW264.7 cells; format: cell-based, murine; settings: RAW264.7, LPS 0.1 μg/ml, 16 hours
Protocol: (§1) RAW264.7, a murine macrophage cell line, was obtained from Korean Cell Line Bank (KCLB). It was cultured in Dulvecco's modified Eagle's medium (DMEM, LONZA) containing 10% fetal bovine serum (FBS, LONZA) and 1% penicillin/streptomycin (Sigma) in an incubator at 37° C. under 5% CO2 and then sub-cultured when the cell density reached 80%. After RAW264.7 cells were cultured for 24 hours, MA (1-100 μM), MMA (10 μM), SMA (10 μM) and hydrocortisone (10 μM), which is a well-known substance having anti-inflammatory activity, were added. One hour after the addition, LPS (0.1 or 1.0 μg/ml, Sigma) was added to the mixture, which was then cultured for 8 or 16 hours. Dimethyl sulfoxide (hereinafter, “DMSO”) was used as a negative control, while LPS (0.1 or 1.0 μg/ml, Sigma) was used as a positive control without adding the macrolactin compounds.
(§2) The effect of the present macrolactin compounds on the formation of intracellular inflammatory factor, iNOS and COX-2 protein was investigated. Murine macrophage RAW264.7 cells adjusted to 1×10^6 cells/dish were cultured in a 100 mm dish for 24 hours under the conditions mentioned in Example 2 and then further cultured for 16 hours after being treated with the present macrolactin compounds and LPS (0.1 μg/ml, Sigma). The cells were washed 2-3 times with cold PBS and then collected. 100 μl of 50 mM Tris-HCl buffer, pH7.5 (0.1 M KCl, 1 mM EDTA, 1 mM DTT, 0.2 mM PMSF) were added to the collected cells, which were lysed by using liquid nitrogen. The lysate was centrifuged at 4° C. for 10 minutes at 13,000 rpm to collect the supernatant. Protein was quantitatively analyzed by the Bradford method. 50 μg of the protein was subjected to sodium dodecyl sulfate-polyacrylamide gel electrophoresis (SDS-PAGE). The SDS-PAGE gel was transferred to nitrocellulose membrane (Amersham) at 50 V for 2 hours. The nitrocellulose membrane was washed twice with 1× Tris buffered saline (TBS; 0.1 M NaCl, 10 mM Tris-HCl), to which was added 3% gelatin solution for blocking non-specific protein reaction and then reacted at room temperature for 1 hour. […]

[2] = test system: iNOS mRNA; assay: Expression of iNOS mRNA by real-time PCR in LPS-stimulated RAW264.7 cells; format: cell-based, murine; settings: RAW264.7, LPS 0.1 μg/ml, 16 hours; for inhibition of expression of iNOS mRNA: real-time PCR; for inhibition of iNOS mRNA expression compared to hydrocortisone: relative to hydrocortisone (10 μM)
Protocol: as §1
The effect of the present macrolactin compounds on the expression of intracellular inflammatory factors, iNOS and COX-2 mRNA was investigated. Murine macrophage RAW264.7 cells adjusted to 1×10^5 cells/well were cultured in a 6-well plate for 24 hours under the conditions mentioned in Example 2 and then further cultured for 16 hours after being treated with the present macrolactin compounds and LPS (0.1 μg/ml, Sigma). Total RNA of the cultured cells was isolated by Trizol reagent (Sigma) under RNase-free conditions. A cDNA synthesis kit (TAKARA) was used to obtain a template for PCR using the separated total RNA. To the mixture of 1 μl of Oligo dT Primer (50 μM), 1 μl of dNTP Mixture (10 mM each) and 2 μg of the template RNA, RNase-free dH2O was added to adjust the total volume to 10 μl. The mixture was maintained at 65° C. for 5 minutes and then in ice for 2 minutes. To the mixture of 10 μl of the mixture, 4 μl of 5× PrimeScript™ buffer, 0.5 μl of RNase inhibitor (40 U/μl), and 0.5 μl of PrimeScript™ RTase (200 U/μl), RNase-free dH2O was added to adjust the total volume to 20 μl. The mixture was reacted at 42° C. for 30 minutes to synthesize cDNA.
(§3) The extent of iNOS and COX-2 mRNA expression of the mixture was determined by using a real-time gene amplifier (Corbett Life Science Rotor-gene 6000). The operating condition of the real-time gene amplifier was as follows: initial denaturation started at 95° C. for 5 minutes and was then repeated 50 times at 94° C. for 30 seconds, at 57° C. for 30 seconds and 72° C. for 30 seconds. When the mRNA expressions of the samples were compared with each other, that of the housekeeping gene was determined at the same time and then the relative quantity was calculated. By compensating the amount of RNA for the measured value of the housekeeping gene, the amount of mRNA produced in each sample was calculated to Ct (Threshold cycle) value.

[3] = test system: COX-2 protein; assay: Formation of COX-2 protein by western blot in LPS-stimulated RAW264.7 cells; format: cell-based, murine; settings: RAW264.7, LPS 0.1 μg/ml, 16 hours
Protocol: as §1, §2

[4] = test system: TNF-α formation in RAW264.7 cells; assay: Inhibition of TNF-α formation (mouse ELISA kit) in LPS-stimulated RAW264.7 cells; format: cell-based, murine; settings: RAW264.7, LPS; for inhibition of TNF-α formation: vs control treated with LPS only
Protocol: (§4) The present inventors have confirmed the anti-inflammatory effects of the above macrolactin compounds to accomplish the present invention. In order to investigate the anti-inflammatory effects, a murine macrophage RAW264.7 cell line treated with each of the purified compounds was stimulated by LPS (0.1 μg/mL or 1.0 μg/mL, Sigma), and then the formation of inflammation-inducing substances 1) NO and 2) PEG2 and the expression of enzymes related to their formation were analyzed. The formation of 3) pro-inflammatory cytokines, TNF-α, IL-1β, IL-6 and GM-CSF were also analyzed by the same procedures.
(§5) 3) Suppression of pro-inflammatory cytokines by the present macrolactin compounds was determined by using a mouse ELISA kit (KOMA Biotech).
as §1

[5] = test system: murine macrophage RAW264.7; assay: Cytotoxicity by MTT analysis; format: cell-based; settings: RAW264.7, MTT, 16 hours
Protocol: as §1
MTT analysis was used to investigate the cytotoxic effects on murine macrophage RAW264.7 of the present macrolactin compounds. The cells adjusted to 4×10^4 cells/well were cultured in a 96-well plate for 24 hours under the conditions mentioned in Example 2 and then further cultured for 16 hours after being treated with the present macrolactin compounds. After the medium was removed, 100 μl of MTT solution (2 mg/ml PBS) was added, and then the mixture was cultured in an incubator at 37° C. under 5% CO2 for 4 hours. After the MTT solution was removed, 100 μl of DMSO was added, and then the mixture was shake-cultured for 30 minutes in the dark. After the culture, the amount of free formazan was determined at 540 nm by using an ELISA reader.

[6] = test system: IL-6 formation in RAW264.7 cells; assay: Inhibition of IL-6 formation (mouse ELISA kit) in LPS-stimulated RAW264.7 cells; format: cell-based, murine; settings: RAW264.7, LPS
Protocol: as §4, §5, §1

[7] = test system: PGE2 formation in RAW264.7 cells; assay: Inhibition effect on PGE2 formation (EIA kit) in LPS-stimulated RAW264.7 cells; format: cell-based, murine; settings: RAW264.7, LPS 0.1 μg/ml, 16 hours; vs control treated with LPS only
Protocol: as §1
The amount of formed PGE2, an intracellular […] factor, was determined by using an Amersham prostaglandin E2 biotrak Enzymeimmunoassay (EIA) system Kit (GE Healthcare). Murine macrophage RAW264.7 cells adjusted to 2×10^4 cells/well were cultured in a 96-well plate for 24 hours under the conditions mentioned in Example 2 and then further cultured for 16 hours after being treated with the present macrolactin compounds and LPS (0.1 μg/ml, Sigma). The amount of produced PGE2 was calculated using the calibration curve which had been made through the standard solution provided by the manufacturer at an absorbance of 450 nm in a UV spectrometer. The r^2 value of the calibration curve against the standard substance was above 0.99.

[8] = test system: GM-CSF formation in RAW264.7 cells; assay: Inhibition of GM-CSF formation (mouse ELISA kit) in LPS-stimulated RAW264.7 cells; format: cell-based, murine; settings: RAW264.7, LPS
Protocol: as §4, §5
(§6) RAW264.7, a murine macrophage cell line, was obtained from Korean Cell Line Bank (KCLB). It was cultured in Dulvecco's modified Eagle's medium (DMEM, LONZA) containing 10% fetal bovine serum (FBS, LONZA) and 1% penicillin/streptomycin (Sigma) in an incubator at 37° C. under 5% CO2 and then sub-cultured when the cell density reached 80%. After RAW264.7 cells were cultured for 24 hours, MA (1-100 μM), MMA (10 μM), SMA (10 μM) and hydrocortisone (10 μM), which is a well-known substance having anti-inflammatory activity, were added. One hour after the addition, LPS (0.1 or 1.0 μg/ml, Sigma) was added to the mixture, which was then cultured for 8 or 16 hours. […]

[9] = test system: IL-1β formation in RAW264.7 cells; assay: Inhibition of IL-1β formation (mouse ELISA kit) in LPS-stimulated RAW264.7 cells; format: cell-based, murine; settings: RAW264.7, LPS
Protocol: as §4, §5, §6

[10] = test system: COX-2 mRNA; assay: Expression of COX-2 mRNA by real-time PCR in LPS-stimulated RAW264.7 cells; format: cell-based, murine; settings: RAW264.7, LPS 0.1 μg/ml, 16 hours
Protocol: as §1
The effect of the present macrolactin compounds on the expression of intracellular inflammatory factors, iNOS and COX-2 mRNA was investigated. Murine macrophage RAW264.7 cells adjusted to 1×10^5 cells/well were cultured in a 6-well plate for 24 hours under the conditions mentioned in Example 2 and then further cultured for 16 hours after being treated with the present macrolactin compounds and LPS (0.1 μg/ml, Sigma). Total RNA of the cultured cells was isolated by Trizol reagent (Sigma) under RNase-free conditions. A cDNA synthesis kit (TAKARA) was used to obtain a template for PCR using the separated total RNA. […]
as §3, with “The operating condition of the real-time gene amplifier was as follows: initial denaturation started at 95° C. for 5 minutes and was then repeated 50 times at 94° C. for 30 seconds, at 57° C. for 30 seconds and 72° C. for 30 seconds.” left out

[11] = test system: NO formation in RAW264.7 cells; assay: Inhibition effect on NO formation (Griess reaction) in LPS-stimulated RAW264.7 cells; format: cell-based, murine; settings: RAW264.7, LPS 0.1 μg/ml, 16 hours; MA 1-100 μM, MMA, SMA, hydrocortisone 10 μM; vs control treated with LPS only
Protocol: as §1
NO concentration in cell culture was determined by using a Nitrate/Nitrite colorimetric assay Kit (Cayman). Murine macrophage RAW264.7 cells adjusted to 1×10^5 cells/well were cultured in a 6-well plate for 24 hours under the conditions mentioned in Example 2, and then further cultured for 16 hours after being treated with the present macrolactin compounds and LPS (0.1 μg/ml, Sigma). The cultured media were treated with Griess reagent R1 (sulfanilamide) and then Griess reagent R2 (N-(1-Naphthyl)-ethylenediamine) in a 96-well plate provided by the manufacturer, and then detected the formation of purple azo group from nitrite. The amount of produced NO was calculated using the calibration curve which had been made through the standard solution provided by the manufacturer at an absorbance of 540 nm in a UV spectrometer.

[12] = test system: vancomycin-resistant Enterococci (VRE), methicillin-resistant Staphylococcus aureus (MRSA) and Burkholderia cepacia; settings: against VRE, compounds from Bacillus subtilis DSM 16696; cited from earlier work

Structure (SMILES) | inhibition of formation of iNOS protein [1] | inhibition of expression of iNOS mRNA [2] | inhibition of iNOS mRNA expression compared to hydrocortisone [2] | inhibition of formation of COX-2 protein [3] | inhibition effect on TNF-α formation compared to hydrocortisone / control substances ([4]; relative to hydrocortisone) | inhibition of TNF-α formation [4] | cytotoxicity compared to hydrocortisone [5] | inhibition of IL-6 formation [6] | inhibition of PGE2 formation [7] | inhibition of GM-CSF formation [8] | inhibition of IL-1β formation [9] | inhibition of expression of COX-2 mRNA [10] | inhibition of NO formation [11] | anti-bacterial activity [12]
CC1CCC/C=C/C=C/[C@H](O)C[C@@H](O)C/C=C\C=C\[C@@H](O)C/C=C/C=C\C(=O)O1 (stereo partly drawn) [MA, macrolactin A] | strongly inhibited | strongly suppressed; also recorded: strongly inhibited | comparable to or superior to that of hydrocortisone | strongly inhibited | especially superior inhibition effect | inhibited | lower cytotoxicities | strongly inhibited | strongly inhibited | strongly inhibited | strongly inhibited | strongly inhibited | strongly inhibited | anti-bacterial effect against MRSA only
C[C@@H]1CCC/C=C/C=C/[C@H](O)C[C@@H](O)C/C=C\C=C\[C@@H](OC(=O)CC(=O)O)C/C=C/C=C\C(=O)O1 [MMA, 7-O-malonyl macrolactin A] | strongly inhibited | strongly suppressed; also recorded: strongly inhibited | comparable to or superior to that of hydrocortisone | strongly inhibited |  | inhibited | lower cytotoxicities | strongly inhibited | strongly inhibited |  |  | strongly inhibited | strongly inhibited; also recorded: low inhibition activities | superior anti-bacterial activity
C[C@@H]1CCC/C=C/C=C/[C@H](O)C[C@@H](O)C/C=C\C=C\[C@@H](OC(=O)CCC(=O)O)C/C=C/C=C\C(=O)O1 [SMA, 7-O-succinyl macrolactin A] | strongly inhibited | strongly suppressed; also recorded: strongly inhibited | comparable to or superior to that of hydrocortisone | strongly inhibited |  | inhibited | lower cytotoxicities | strongly inhibited | strongly inhibited | strongly inhibited | strongly inhibited | strongly inhibited | strongly inhibited; also recorded: low inhibition activities | superior anti-bacterial activity
C[C@]12CCC(=O)C=C1CC[C@@H]1[C@@H]2[C@@H](O)C[C@@]2(C)[C@H]1CC[C@]2(O)C(=O)CO [hydrocortisone, reference compound] |  |  |  |  |  |  |  |  |  |  |  |  | strongly inhibited | 
